According to paper doi:10.1101/705459v3 (bioRxiv, 2019):
“Also recorded” adds a separate entry of the source. Peptide text beside a SMILES is read from it.

How the values were obtained:
TEM8 = TEM8 (Homo sapiens, UniProt Q9H6X2); assay type: binding; conditions: 250nM mCitrine-TEM8, 325nM PA-546; S16 313 nM to 40 μM
EA.hy926 cells = assay type: cell-based, human
EOMA cells [1] = assay type: cell-based, murine
CMG2 = CMG2 (Homo sapiens, UniProt P58335, C175A/R40C); test: biochemical; assay type: binding; conditions: for koff: read-out: off-rate / koff (BLI)
Chain of CMG2 (P58335 40-217 R40C/C175A limits assumed): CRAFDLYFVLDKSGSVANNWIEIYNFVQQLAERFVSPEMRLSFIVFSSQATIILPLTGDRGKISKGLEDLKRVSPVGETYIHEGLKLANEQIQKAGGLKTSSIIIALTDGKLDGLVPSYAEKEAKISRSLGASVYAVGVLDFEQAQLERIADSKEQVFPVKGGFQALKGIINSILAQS

EOMA cells [2] = assay type: cell-based, murine; conditions: n=3

Chain of TEM8 (Q9H6X2 44-215 limits assumed): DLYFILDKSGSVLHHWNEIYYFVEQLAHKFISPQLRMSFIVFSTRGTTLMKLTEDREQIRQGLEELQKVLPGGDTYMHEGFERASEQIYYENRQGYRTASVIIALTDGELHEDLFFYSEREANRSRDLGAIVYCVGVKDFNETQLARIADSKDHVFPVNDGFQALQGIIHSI

## CC[C@H](C)[C@H](NC(=O)[C@H](C)NC(=O)[C@@H](NC(=O)[C@H](C)NC(=O)[C@@H]1CCCN1)[C@@H](C)CC)C(=O)N[C@@H](C)C(=O)N[C@H](C(=O)N[C@@H](Cc1c[nH]cn1)C(=O)N[C@@H](CO)C(=O)N[C@@H](CCC(N)=O)C(=O)N[C@@H](CC(=O)O)C(=O)N[C@H](C(=O)N[C@@H](CO)C(=O)N[C@H](C(=O)N1CCC[C@H]1C(=O)O)[C@@H](C)CC)C(C)C)C(C)C [Peptide S16] (H-PAIAIAVHSQDVSIP-OH; N-terminus and C-terminus assumed)
TEM8
  inhibition of TEM8-PA FRET: negligible; also recorded: unable to compete
EA.hy926 cells
  reduction of migration toward serum: ~ 90%
EOMA cells [1]
  proliferation relative to untreated control: no change in proliferation
CMG2; 10 mM EDTA instead of 2 mM CaCl2 and 1 mM MgCl2, 10 µM S16, n=3
  S16 binding to CMG2 in EDTA (BLI): prevents S16 binding
CMG2; 1:1 model
  on-rate (BLI): ≈ 2 × 10^2 M^−1s^−1
CMG2; S16 prepared in a fashion that encourages monomerization
  binding on BLI of S16 prepared to encourage monomerization: binding is not observed
CMG2
  koff: ~0.0001 s⁻¹
CMG2; sensors equilibrated with 500 nM PA, then 10 µM S16, n=3
  S16 binding to CMG2 sensors treated with PA before S16 (BLI): reduced
EOMA cells [2]
  reduction in wound closure: 60%

## CC[C@H](C)[C@H](NC(=O)[C@H](CO)NC(=O)[C@@H](N)C(C)C)C(=O)NCC(=O)N[C@@H](Cc1ccc(O)cc1)C(=O)N[C@@H](CC(C)C)C(=O)N[C@@H](CC(C)C)C(=O)N[C@H](C(=O)N[C@@H](CCCCN)C(=O)N[C@@H](Cc1c[nH]cn1)C(=O)N[C@@H](CO)C(=O)N[C@@H](CCC(N)=O)C(=O)N[C@H](C(=O)N[C@@H](CC(=O)O)C(=O)N[C@@H](CCC(N)=O)C(=O)O)[C@@H](C)O)C(C)C [Peptide U12] (H-VSIGYLLVKHSQTDQ-OH; N-terminus and C-terminus assumed)
CMG2
  koff: 0.0125 ± 0.0002 s⁻¹
CMG2; representative fit
  kon (BLI): 150 ± 10 M/s

## SPIAVDVQSAPIHAI [scrambled S16, reference compound]
EA.hy926 cells
  directional migration versus vehicle: no significant difference
CMG2; concentrations up to 30 μM, 3 independent experiments, no binding model fits
  binding of CMG2 (BLI), in words: minimal binding
